We go through eleven compounds from publication PMC6008492, “Structure activity relationship studies on rhodanines and derived enethiol inhibitors of metallo-β-lactamases” (Bioorganic & Medicinal Chemistry, 2018).

One experiment addresses T1, VIM-2 (Escherichia coli, UniProt Q5U7L7).
T1 construct: made in house
Description: biochemical. Here is the method: (§1) Inhibition analyses against bacterial MBLs and SBLs were performed as described previously.[22], [24], [26] Residual enzyme activities were determined for a range of inhibitor concentrations. Non-linear regression fitting of IC50 curves was carried out using a three-parameter dose–response curve in GraphPad Prism. Errors in IC50 values are expressed as: σ(logIC50)/logIC50×IC50
(§2) We first screened the inhibitors against a representative set of presently clinically important and other MBLs[22], comprising both Class B1 enzymes (NDM-1, New Delhi MBL-1; VIM-2, Verona integron–encoded MBL-2; BcII, Bacillus cereus II MBL; SPM-1, São Paulo MBL-1; IMP-1, imipenemase MBL-1) and the Class B2 MBL CphA (carbapenem hydrolysing MBL from Aeromonas hydrophila).[22] The latter MBL (CphA) only utilises one active site Zn(II) ion in catalysis, whilst the others normally use two Zn(II) ions. We also screened the inhibitors against a representative panel of SBLs from different classes (TEM-1, Temoneira β-lactamase-1, class A; CTX-M-15, cefotaxime hydrolysing β-lactamase from Munich 15, class A, extended spectrum β-lactamase (ESBL); AmpC E. coli, class C, and OXA-10, oxacillinase-10, class D).
Figure S6: IC50 curves for VIM-2 inhibition time courses. Residual activities were calculated from the
(§3) initial rate of FC5 hydrolysis after incubation of the enzyme with the inhibitor for 10 minutes. […]

The target of a further experiment is SPM-1 (Pseudomonas aeruginosa, UniProt Q8G9Q0). The experiment in a line: SPM-1 inhibition, fluorogenic cephalosporin (FC5) hydrolysis. It counts as biochemical. Here is the method:
as §1
(§4) We first screened the inhibitors against a representative set of presently clinically important and other MBLs[22], comprising both Class B1 enzymes (NDM-1, New Delhi MBL-1; VIM-2, Verona integron–encoded MBL-2; BcII, Bacillus cereus II MBL; SPM-1, São Paulo MBL-1; IMP-1, imipenemase MBL-1) and the Class B2 MBL CphA (carbapenem hydrolysing MBL from Aeromonas hydrophila).[22] The latter MBL (CphA) only utilises one active site Zn(II) ion in catalysis, whilst the others normally use two Zn(II) ions.
Figure S5: IC50 curves for SPM-1 inhibition time courses. Residual activities were calculated from the
as §3

The target of a further experiment is T2, CphA (Aeromonas hydrophila, UniProt P26918).
T2 construct: made in house
T2 sequence (P26918 28-254): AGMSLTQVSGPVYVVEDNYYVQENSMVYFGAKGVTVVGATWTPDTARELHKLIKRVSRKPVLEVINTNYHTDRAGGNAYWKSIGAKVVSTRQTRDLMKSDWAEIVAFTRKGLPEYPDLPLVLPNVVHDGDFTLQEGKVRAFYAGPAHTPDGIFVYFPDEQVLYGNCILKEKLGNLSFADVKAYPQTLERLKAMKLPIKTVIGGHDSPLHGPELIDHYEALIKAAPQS
The experiment in a line: CphA (subclass B2 MBL) inhibition. It counts as biochemical. Here is the method: as §1, §2

In another experiment the target is T3, IMP-1 (Serratia marcescens, UniProt P52699).
T3 construct: made in house
T3 sequence (P52699 19-246, looked up, species assumed): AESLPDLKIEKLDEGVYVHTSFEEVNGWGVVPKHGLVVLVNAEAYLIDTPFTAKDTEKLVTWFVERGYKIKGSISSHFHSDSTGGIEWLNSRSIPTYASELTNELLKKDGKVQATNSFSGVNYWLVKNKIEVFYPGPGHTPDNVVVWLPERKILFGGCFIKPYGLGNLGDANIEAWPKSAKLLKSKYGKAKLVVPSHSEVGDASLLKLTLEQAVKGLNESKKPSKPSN
The experiment in a line: IMP-1 inhibition, fluorogenic cephalosporin (FC5) hydrolysis. It counts as biochemical. Here is the method:
as §1, §4
Figure S3: IC50 curves for IMP-1 inhibition time courses. Residual activities were calculated from the
initial rate of FC5 hydrolysis after incubation of the enzyme with the inhibitor for 10 minutes.

The target of the next experiment is T4, BcII (Bacillus cereus, UniProt P04190).
T4 construct: made in house
T4 sequence (P04190 31-257): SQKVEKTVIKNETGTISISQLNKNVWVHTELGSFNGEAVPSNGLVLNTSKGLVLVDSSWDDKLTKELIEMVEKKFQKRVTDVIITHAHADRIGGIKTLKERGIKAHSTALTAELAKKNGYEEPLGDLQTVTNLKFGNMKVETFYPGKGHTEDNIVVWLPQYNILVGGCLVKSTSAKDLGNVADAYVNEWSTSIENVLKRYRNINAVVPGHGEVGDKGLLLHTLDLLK
The experiment in a line: biochemical. Here is the method: as §1, §4
Figure S2: IC50 curves for BcII inhibition time courses. Residual activities were calculated from the initial
rate of FC5 hydrolysis after incubation of the enzyme with the inhibitor for 10 minutes. […]

A further experiment deals with T5, NDM-1 (Klebsiella pneumoniae, UniProt C7C422).
T5 construct: made in house
T5 sequence (C7C422 29-270, looked up, species assumed): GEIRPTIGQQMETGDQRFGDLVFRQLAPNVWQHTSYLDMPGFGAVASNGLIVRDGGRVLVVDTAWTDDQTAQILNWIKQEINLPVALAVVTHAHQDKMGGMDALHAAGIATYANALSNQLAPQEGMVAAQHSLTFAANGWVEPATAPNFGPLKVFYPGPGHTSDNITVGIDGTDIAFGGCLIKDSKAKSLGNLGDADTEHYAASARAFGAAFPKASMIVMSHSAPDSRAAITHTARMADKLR
Description: NDM-1 inhibition, fluorogenic cephalosporin (FC5) hydrolysis. It counts as biochemical. Here is the method: as §1, §4
Figure S4: IC50 curves for NDM-1 inhibition time courses. Residual activities were calculated from the
as §3

Experiment [1] deals with MBLs (SPM-1, IMP-1, BcII, VIM-2, NDM-1). It counts as biochemical. The note with it: for MBL inhibition, result in words: at 100 µM. As to the method: as §1, §2
[2] abbreviates: Table 2, read-out: IC50 versus SPM-1.
Where [3] appears, read: Table 2, read-out: IC50 versus BcII.
Setting [4] is: enethiols 6 assayed as sodium salts, 10 min incubation, read-out: IC50 VIM-2 (converted).
Where [5] appears, read: enethiols 6 assayed as sodium salts, 10 min incubation, read-out: IC50 SPM-1 (converted).
The mark [6] stands for this setting: enethiols 6 assayed as sodium salts, 10 min incubation, read-out: IC50 IMP-1 (converted).
The mark [7] stands for this setting: enethiols 6 assayed as sodium salts, 10 min incubation, read-out: IC50 BcII (converted).
Setting [8] is: enethiols 6 assayed as sodium salts, 10 min incubation, read-out: IC50 NDM-1.
Setting [9] is: Table 2, read-out: IC50 versus CphA.

Structures are written as SMILES. Where two headings read alike, the source gives them in different places.

SPM-1, sequence (Q8G9Q0 entry or part of it): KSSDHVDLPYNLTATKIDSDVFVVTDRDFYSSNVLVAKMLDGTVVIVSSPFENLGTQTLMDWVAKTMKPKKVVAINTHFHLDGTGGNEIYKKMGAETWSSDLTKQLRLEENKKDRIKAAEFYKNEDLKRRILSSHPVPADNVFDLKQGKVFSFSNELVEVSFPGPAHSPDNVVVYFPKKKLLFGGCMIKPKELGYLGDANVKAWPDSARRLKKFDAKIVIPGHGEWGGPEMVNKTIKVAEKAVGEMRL

Usually IC50 stands for the concentration needed to halve the response being measured. Consider `O=C(O)C(O)Cc1ccccc1` (stereo not shown) [3-Phenyllactic acid, reference compound], for which the IC50 against VIM-2, on SPM-1 (setting [2]), against CphA, on IMP-1, at BcII (setting [3]) and at NDM-1 was more than 100000 nM in each case. In addition, the “MBL inhibition, result in words” value in experiment [1] was “inactive”.

Regarding `CN1CCN(NC(=O)CN2C(=O)/C(=C/c3ccccc3)SC2=S)CC1` [Compound 5a], the IC50 on VIM-2 (setting [4]) was 16400 nM; at SPM-1 (setting [5]) it was more than 50000 nM; on CphA, more than 50000 nM; on IMP-1 (setting [6]) it was 22700 nM; at BcII (setting [7]), more than 50000 nM; on NDM-1 (setting [8]), 26700 nM.

For the compound `CN1CCN(NC(=O)CN2C(=O)/C(=C/c3c(Cl)cccc3Cl)SC2=S)CC1` [Compound 5m], the IC50 on VIM-2 (setting [4]) was 300 nM; at SPM-1 (setting [5]), 200 nM; against CphA it was more than 50000 nM; on IMP-1 (setting [6]), 200 nM; at BcII (setting [7]), 200 nM; on NDM-1 (setting [8]), 28400 nM.

Turning to `O=C(O)/C(S)=C/c1ccccc1` [Compound 6a], the IC50 at VIM-2 (setting [4]) is 400 nM; on SPM-1 (setting [5]), 300 nM; at CphA (setting [9]), 2100 ± 20 nM; at IMP-1 (setting [6]), 300 nM; on BcII (setting [3]), 700 ± 200 nM; at BcII (setting [7]) it was 700 nM. The IC50 on NDM-1 (setting [8]) was determined as 7900 nM.

For the compound `O=C(O)/C(S)=C/c1c(Cl)cccc1Cl` [Compound 6m], the IC50 was 30 nM on VIM-2 (setting [4]); 10 nM at SPM-1 (setting [5]); 800 ± 20 nM against CphA; 10 nM on IMP-1 (setting [6]); 70 nM at BcII (setting [7]); 600 nM at NDM-1 (setting [8]). Besides, the IC50 in experiment [1] (lower end of the range, read-out: IC50 values from (lowest across the MBL panel)) was 10 nM.

Turning to `O=C(O)C(S)c1ccccc1` (stereo not shown) [Compound 13a], the IC50 against VIM-2 was 40 ± 1 nM; at SPM-1 (setting [2]), 50 ± 1 nM; on CphA (setting [9]), 71000 ± 1000 nM; at IMP-1, 70 ± 3 nM; on BcII (read-out: IC50 versus BcII) it was 100 nM; against NDM-1, 12900 ± 1000 nM.

In the case of `O=C(O)C(S)Cc1ccccc1` (stereo not shown) [Compound 13b], the half-maximal inhibitory concentration (IC50) on VIM-2 (Table 2, read-out: IC50 versus VIM-2) stood at 70 ± 2 nM; at SPM-1 (setting [2]), 70 ± 1 nM; on CphA (setting [9]) it was 130000 ± 10000 nM; on IMP-1 (Table 2, read-out: IC50 versus IMP-1), 50 ± 2 nM; at BcII (setting [3]), 1400 ± 300 nM; at NDM-1 (Table 2, read-out: IC50 versus NDM-1) it was 38700 ± 4700 nM.

On to `O=P(O)(O)C(S)c1ccc(Br)cc1F` (stereo not shown) [Compound 26], for which the remaining activity at 100 µM at VIM-2 (read-out: % Residual activity versus VIM-2) is 100%; at SPM-1 (read-out: % Residual activity versus SPM-1), 95 ± 6%; on IMP-1 (read-out: % Residual activity versus IMP-1), 100%; at BcII (read-out: % Residual activity versus BcII), 100%; on NDM-1 (read-out: % Residual activity versus NDM-1), 96 ± 3%. Further, the “MBL inhibition, result in words” value in experiment [1] was “inactive”.

Regarding `CN1CCN(NC(=O)CN2C(=O)/C(=C/c3c(Cl)ccc(Cl)c3Cl)SC2=S)CC1` [ML302, reference compound], the IC50 is 60 nM at VIM-2 (setting [4]); 100 nM at SPM-1 (setting [5]); more than 50000 nM at CphA (read-out: IC50 CphA); 90 nM at IMP-1 (setting [6]); 300 nM on BcII (setting [7]); 15600 nM at NDM-1 (setting [8]). At SPM-1 (ratio of IC50 values), the “fold less active than ML302F, SPM-1” value is on record as approximately 5 fold. In addition, the “fold less active than ML302F, BcII” value at BcII (ratio of IC50 values) is on record as approximately 4 fold. For the same compound, on NDM-1 (ratio of IC50 values), the “fold less active than ML302F, NDM-1” value is listed as approximately 15 fold.

As for `O=C(O)/C(S)=C/c1c(Cl)ccc(Cl)c1Cl` [ML302F, reference compound], the IC50 at VIM-2 (setting [4]) is 40 nM; at SPM-1 (setting [5]), 20 nM; at CphA (read-out: IC50 CphA), 200 ± 4 nM; on IMP-1 (setting [6]), 20 nM; at BcII (setting [7]) it was 80 nM; at NDM-1 (setting [8]) it was 2400 nM.

For `O=C(O)C(O)c1ccccc1` (stereo not shown) [Mandelic acid, reference compound], the IC50 against VIM-2, at SPM-1 (setting [2]), at CphA, against IMP-1, at BcII (setting [3]) and at NDM-1 was more than 100000 nM throughout. Further, the “MBL inhibition, result in words” value in experiment [1] was “inactive”.
